In patent publication US9314468B2, “Chemokine receptor modulators” (Altiris Therapeutics, Inc., priority 2008, dated 2016):
pIC50: −log10 of the molar value. Each block holds one compound with its values, some of them ahead of it.

Experiments:
Assay type in all cases: cell-based
[1] = Cytotoxicity assay, 6 days; conditions: human, CCRF-CEM cells
Experimental: Cytotoxicity of the compounds was assessed by the following assay. CCRF-CEM cells in media (RPMI 1640, 15% FBS, Pen/Strep., 1% non-essential amino acids) are incubated with various concentrations of test compound for 6 days undisturbed. Cell number relative to no compound controls is determined using either Serotec's “Alamar blue” per manufacturers protocol or Promega's “Cell Titer 96 Aqueous One Solution Cell Proliferation Assay” kit per manufacturers protocol. The number cells not surviving after test compound administration is determined for each concentration tested and the EC50 (concentration of compound in which 50% of the cells survive) is determined

CXCR4 [2] = target: T1, CXCR4 (Homo sapiens (Human), UniProt P61073); assay: Functional calcium mobilization assay (SDF-1α induced); conditions: for pIC50: read-out: Ca Flux IC50; for inhibition at 1 µM: CCRF-CEM, read-out: % inhibition at 1 μM
T1 sequence (P61073 whole entry): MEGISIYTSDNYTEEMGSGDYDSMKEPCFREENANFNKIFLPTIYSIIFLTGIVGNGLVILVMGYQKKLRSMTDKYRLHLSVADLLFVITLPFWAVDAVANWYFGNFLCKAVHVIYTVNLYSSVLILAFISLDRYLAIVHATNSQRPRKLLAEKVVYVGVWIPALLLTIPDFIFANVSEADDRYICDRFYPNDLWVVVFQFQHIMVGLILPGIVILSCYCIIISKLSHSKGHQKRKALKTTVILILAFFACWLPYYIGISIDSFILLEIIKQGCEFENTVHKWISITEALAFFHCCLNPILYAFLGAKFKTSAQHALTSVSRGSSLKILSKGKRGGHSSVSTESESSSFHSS
Experimental: Functional modulation of CXCR4 was determined by calcium mobilization assay using leukemic lymphoid CEM cells, which naturally express high levels of CXCR4. Generally, the assay is carried out as follows: Cells are grown in vitro to confluency. On the day of the assay, cells are removed from the incubator, culture medium removed and replaced with a calcium sensitive dye (Calcium3 assay kit; Molecular Devices, Sunnyvale, Calif.). The cells are allowed to dye load for 45-60 min at 37° C. in the cell culture incubator and then allowed to equilibrate to room temperature for no more than 15 min before assay.
Compound plates were generated containing up to 3% dimethyl sulfoxide in media kept at room temperature. Test compounds were added to the cells at a 1:3 dilution, and calcium mobilization was measured using a Flex Station fluorescence imager (Molecular Devices). This first read was used to determine direct agonist activation of the CXCR4 receptor by the test compounds. […] Full dose response curves were generated daily for SDF-1a to calculate IC50 concentrations. The IC50 values are reported. In cases, where one was not determined, a percent inhibition at the 1 μM concentration was extrapolated.
Functional calcium mobilization assay was conducted as described in Example 27.

hERG potassium channel = hERG potassium channel (Homo sapiens (Human), UniProt Q12809); assay: hERG potassium channel current, automatic patch clamp; conditions: human, mammalian cells expressing hERG potassium channel
hERG potassium channel, sequence (Q12809 whole entry): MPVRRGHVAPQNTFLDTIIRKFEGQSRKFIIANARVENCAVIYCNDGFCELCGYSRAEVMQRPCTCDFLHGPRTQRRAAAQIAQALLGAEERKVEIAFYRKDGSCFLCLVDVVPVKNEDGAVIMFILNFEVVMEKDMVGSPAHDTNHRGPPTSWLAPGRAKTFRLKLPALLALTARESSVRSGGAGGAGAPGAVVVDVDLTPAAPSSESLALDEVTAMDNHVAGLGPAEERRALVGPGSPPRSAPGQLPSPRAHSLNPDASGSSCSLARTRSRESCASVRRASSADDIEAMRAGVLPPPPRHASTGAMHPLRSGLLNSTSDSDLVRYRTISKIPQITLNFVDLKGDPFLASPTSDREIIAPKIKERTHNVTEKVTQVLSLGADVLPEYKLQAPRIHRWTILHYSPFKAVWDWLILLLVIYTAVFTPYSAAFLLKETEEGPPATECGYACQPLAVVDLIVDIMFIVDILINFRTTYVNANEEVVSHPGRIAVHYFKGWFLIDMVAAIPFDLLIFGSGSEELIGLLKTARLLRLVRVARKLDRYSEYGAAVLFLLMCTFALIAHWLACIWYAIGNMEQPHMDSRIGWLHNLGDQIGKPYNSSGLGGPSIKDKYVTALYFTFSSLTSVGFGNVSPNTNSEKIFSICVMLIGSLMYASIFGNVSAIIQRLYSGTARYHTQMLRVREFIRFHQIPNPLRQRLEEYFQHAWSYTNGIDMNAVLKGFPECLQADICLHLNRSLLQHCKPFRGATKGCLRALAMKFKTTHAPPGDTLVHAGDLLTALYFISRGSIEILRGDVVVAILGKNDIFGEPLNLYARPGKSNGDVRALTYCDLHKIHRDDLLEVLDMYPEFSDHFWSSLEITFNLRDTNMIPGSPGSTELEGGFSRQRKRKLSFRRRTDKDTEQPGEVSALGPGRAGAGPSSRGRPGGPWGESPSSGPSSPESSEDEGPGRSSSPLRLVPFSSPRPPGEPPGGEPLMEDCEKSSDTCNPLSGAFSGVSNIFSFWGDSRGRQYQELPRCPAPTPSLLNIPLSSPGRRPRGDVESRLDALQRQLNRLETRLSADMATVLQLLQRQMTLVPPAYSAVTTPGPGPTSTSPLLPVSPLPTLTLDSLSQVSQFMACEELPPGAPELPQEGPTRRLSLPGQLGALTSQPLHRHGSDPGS
Experimental: The in vitro effects of the selected compounds on the hERG (human ether-á-go-go-related gene) potassium channel current (a surrogate for IKr, the rapidly activating, delayed rectifier cardiac potassium current) expressed in mammalian cells were evaluated at room temperature using the PatchXpress 7000A (Molecular Devices), an automatic parallel patch clamp system.

CXCR4 [3] = target: T1, CXCR4; assay: Cellular impedance change induced by SDF-1a (cellular dielectric spectroscopy); conditions: HeLa cells, endogenous CXCR4, EC50 concentration of SDF-1a, 30 minutes; read-out: Antagonist IC50
Experimental: This assay measures the change in impedance that occurs when cells are stimulated with SDF-1a. Changes in shape and cytoskeleton result in a change of impedance that is dependent on the activation of the CXCR4 receptor. This assay is contracted to MDS Pharma Services and performed as described in http://discovery.mdsps.com/Catalog/Services/Screening/CellKey/AssayDetails.aspx?id=7 (Assay 930070). Briefly, human HeLa cells expressing endogenous CXCR4 are grown in vitro and receptor activation in live cells is measured using cellular dielectric spectroscopy (CDS).

[4] = CEM cells, SDF-1α challenge at EC80-EC90

SMILES: NCCCCN(Cc1nccc2c3ccccc3n(CC(=O)NC3CCNCC3)c12)C1CCCc2cccnc21 (centres unmarked) [drawing 821]
EC50 at 6 days [1]: 30000 nM
pIC50 (CXCR4 [2]; Table 9, selected compounds): 6.90
inhibition at 5 min, 10 µM (hERG potassium channel): 16%

SMILES: c1cnc2c(c1)CCCC2N(CCCN1CCNCC1)Cc1nccc2c3ccccc3n(CCN3CCOCC3)c12 (centres unmarked) [drawing 811]
pIC50 (CXCR4 [3]): 8.03

SMILES: O=C(O)Cn1c2ccccc2c2ccnc(CN(CCCN3CCNCC3)C3CCCc4cccnc43)c21 (centres unmarked)
pIC50 (CXCR4 [3]): 7.59

SMILES: C[C@@H]1CN(C(=O)Cn2c3ccccc3c3ccnc(CN(CCCCN)[C@H]4CCCc5cccnc54)c32)C[C@H](C)O1 [drawing 826]
EC50 at 6 days [1]: 5300 nM
pIC50 (CXCR4 [2]; Table 9, selected compounds): 6.91
inhibition at 5 min, 1 µM (hERG potassium channel): 18%

SMILES: C[C@@H]1CN(C(=O)Cn2c3ccccc3c3ccnc(CN(CCCCN)C4CCCc5cccnc54)c32)C[C@H](C)O1 (some centres unmarked)
pIC50 (CXCR4 [3]): 8.00

SMILES: CC(C)(C)OC(=O)Cn1c2ccccc2c2ccnc(CN(CCCN3CCNCC3)[C@H]3CCCc4cccnc43)c21 [drawing 825]
EC50 at 6 days [1]: 600 nM
pIC50 (CXCR4 [2]; Table 9, selected compounds): 7.43
inhibition at 5 min, 1 µM (hERG potassium channel): 26%

SMILES: O=C(O)Cn1c2ccccc2c2ccnc(CN(CCCN3CCNCC3)[C@H]3CCCc4cccnc43)c21 [drawing 828]
EC50 at 6 days [1]: > 10000 nM
pIC50 (CXCR4 [2]; Table 9, selected compounds): 6.95
inhibition at 5 min, 10 µM (hERG potassium channel): 20%

SMILES: O=C(Cn1c2ccccc2c2ccnc(CN(CCCN3CCNCC3)C3CCCc4cccnc43)c21)N1CCOCC1 (centres unmarked)
pIC50 (CXCR4 [3]): 7.82

SMILES: NC/C=C/CN(Cc1nccc2c1[nH]c1ccccc12)[C@H]1CCCc2cccnc21
inhibition at 1 µM (CXCR4 [2]): 20%

SMILES: c1ccc(Cn2c3ccccc3c3ccnc(CN[C@H]4CCCc5cccnc54)c32)nc1
pIC50 (CXCR4 [2]; [4]): 5.08

SMILES: c1cnc2c(c1)CCCC2N(CCN1CCOCC1)Cc1nccc2c1[nH]c1ccccc12 (centres unmarked)
inhibition at 1 µM (CXCR4 [2]): 1%

SMILES: NCCCCN(Cc1nccc2c3ccccc3n(CC(=O)NC3CCNCC3)c12)C1CCCc2cccnc21 (centres unmarked) [drawing 814]
pIC50 (CXCR4 [3]): 7.92

SMILES: c1ccc(N2CCNCC2)c(CN(Cc2nccc3c2[nH]c2ccccc23)[C@H]2CCCc3cccnc32)c1
pIC50 (CXCR4 [2]; [4]): 5.43

SMILES: O=C(Cn1c2ccccc2c2ccnc(CN(CCCC3CCNCC3)[C@H]3CCCc4cccnc43)c21)N1CCOCC1
pIC50 (CXCR4 [2]; [4]): 6.91

SMILES: O=C(Cn1c2ccccc2c2ccnc(CN(CCCN3CCNCC3)[C@H]3CCCc4cccnc43)c21)NC1CCOCC1
pIC50 (CXCR4 [2]; [4]): 7.59

SMILES: O=C(Cn1c2ccccc2c2ccnc(CN(CCCN3CCNCC3)[C@H]3CCCc4cccnc43)c21)C1CCOCC1
EC50 at 6 days [1]: 30000 nM
pIC50 (CXCR4 [2]; Table 9, selected compounds): 7.36
inhibition at 5 min, 10 µM (hERG potassium channel): 25%

SMILES: Cc1cccnc1CN(CCCCN)Cc1nccc2c3ccccc3n(CC(=O)N3CCOCC3)c12
pIC50 (CXCR4 [2]; [4]): 6.23

SMILES: CN(Cc1nccc2c3ccccc3n(Cc3cnn[nH]3)c12)[C@H]1CCCc2cccnc21
inhibition at 1 µM (CXCR4 [2]): 0%

SMILES: O=C(Cn1c2ccccc2c2ccnc(CN(CCCCNCc3cccnc3)[C@H]3CCCc4cccnc43)c21)N1CCOCC1
pIC50 (CXCR4 [2]; [4]): 5.85

SMILES: NCCCCN(Cc1cc2c3ccccc3n(CC(=O)N3CCOCC3)c2cn1)[C@H]1CCCc2cccnc21
inhibition at 1 µM (CXCR4 [2]): 0%

SMILES: CC(C)(C)OC(=O)N(CCCCN(Cc1nccc2c1[nH]c1ccccc12)[C@H]1CCCc2cccnc21)C(=O)OC(C)(C)C
inhibition at 1 µM (CXCR4 [2]): 19%

SMILES: CCNCCCCN(Cc1nccc2c1[nH]c1ccccc12)[C@H]1CCCc2cccnc21
pIC50 (CXCR4 [2]; [4]): 6.16

SMILES: c1cnc2c(c1)CCCC2N(CCCCNCC1CC1)Cc1nccc2c1[nH]c1ccccc12 (centres unmarked)
pIC50 (CXCR4 [2]; [4]): 6.14

SMILES: CC(C)(C)OC(=O)CN(CCCCN(Cc1nccc2c1[nH]c1ccccc12)[C@H]1CCCc2cccnc21)CC(=O)OC(C)(C)C
inhibition at 1 µM (CXCR4 [2]): 18%

SMILES: c1cnc2c(c1)CCC[C@@H]2N(CCCN1CCNCC1)Cc1nccc2c3ccccc3n(CCC3CCOCC3)c12
pIC50 (CXCR4 [2]; [4]): 9.00

SMILES: c1cnc2c(c1)CCCC2N(CCCN1CCNCC1)Cc1nccc2c1[nH]c1ccccc12 (centres unmarked)
pIC50 (CXCR4 [2]; [4]): 7.74

SMILES: c1cnc2c(c1)CCCC2N(CCN1CCNCC1)Cc1nccc2c1[nH]c1ccccc12 (centres unmarked)
inhibition at 1 µM (CXCR4 [2]): 0%

SMILES: c1cnc2c(c1)CCCC2N(CCCCN(CC1CC1)CC1CC1)Cc1nccc2c1[nH]c1ccccc12 (centres unmarked)
inhibition at 1 µM (CXCR4 [2]): 0%

SMILES: O=C(Cn1c2ccccc2c2ccnc(CN(C(=O)CCN3CCNCC3)[C@H]3CCCc4cccnc43)c21)N1CCOCC1
inhibition at 1 µM (CXCR4 [2]): 0%

SMILES: NCCCCN(Cc1ccccn1)Cc1nccc2c1[nH]c1ccccc12
pIC50 (CXCR4 [2]; [4]): 5.71

SMILES: CN(Cc1nccc2c1[nH]c1ccccc12)[C@H]1CCCc2cccnc21
inhibition at 1 µM (CXCR4 [2]): 0%

SMILES: CS(=O)(=O)N1CCC(CCN(Cc2nccc3c2[nH]c2ccccc23)C2CCCc3cccnc32)CC1 (centres unmarked)
inhibition at 1 µM (CXCR4 [2]): 5%

SMILES: NCCN(Cc1nccc2c1[nH]c1ccccc12)C1CCCc2cccnc21 (centres unmarked)
inhibition at 1 µM (CXCR4 [2]): 0%

SMILES: O=C(CN(Cc1nccc2c1[nH]c1ccccc12)[C@H]1CCCc2cccnc21)N1CCNCC1
pIC50 (CXCR4 [2]; [4]): 5.74

Second part, led by results:

pIC50 (CXCR4 [2]; Table 9, selected compounds): 7.92
SMILES: NCCCCN(Cc1nccc2c3ccccc3n(CC(=O)N3CCOCC3)c12)[C@H]1CCCc2cccnc21 [drawing 819]
EC50 at 6 days [1]: 30000 nM
inhibition at 5 min, 10 µM (hERG potassium channel): 42%

pIC50 (CXCR4 [2]; Table 9, selected compounds): 8.15
SMILES: NCCCCN(Cc1nccc2c3ccccc3n(CCCN)c12)[C@H]1CCCc2cccnc21 [drawing 827]
EC50 at 6 days [1]: 6400 nM
inhibition at 5 min, 10 µM (hERG potassium channel): 46%

pIC50 (CXCR4 [3]): 8.14
SMILES: NCCCCN(Cc1nccc2c3ccccc3n(CCCN)c12)C1CCCc2cccnc21 (centres unmarked)

pIC50 (CXCR4 [3]): 8.11
SMILES: NCCCCN(Cc1nccc2c3ccccc3n(CCN3CCOCC3)c12)C1CCCc2cccnc21 (centres unmarked)

pIC50 (CXCR4 [3]): 8.24
SMILES: NCCCCN(Cc1nccc2c3ccccc3n(CCN3CCNCC3)c12)C1CCCc2cccnc21 (centres unmarked)

pIC50 (CXCR4 [3]): 8.26
SMILES: C#CCn1c2ccccc2c2ccnc(CN(CCCCN)C3CCCc4cccnc43)c21 (centres unmarked)

pIC50 (CXCR4 [3]): 7.96
SMILES: CN1CCN(C(=O)Cn2c3ccccc3c3ccnc(CN(CCCCN)C4CCCc5cccnc54)c32)CC1 (centres unmarked)

pIC50 (CXCR4 [3]): 8.08
SMILES: NCCCCN(Cc1nccc2c3ccccc3n(CCCN3CCNCC3)c12)C1CCCc2cccnc21 (centres unmarked)

pIC50 (CXCR4 [3]): 8.25
SMILES: NCCCCN(Cc1nccc2c3ccccc3n(CC(=O)N3CCOCC3)c12)C1CCCc2cccnc21 (centres unmarked)

pIC50 (CXCR4 [3]): 7.92
SMILES: NCCCCN(Cc1nccc2c3ccccc3n(CC(=O)N3CCC(O)CC3)c12)C1CCCc2cccnc21 (centres unmarked)

pIC50 (CXCR4 [2]; Table 9, selected compounds): 7.26
SMILES: NCCCCN(Cc1nccc2c3ccccc3n(CCN3CCNCC3)c12)[C@H]1CCCc2cccnc21 [drawing 829]
EC50 at 6 days [1]: > 10000 nM
inhibition at 5 min, 10 µM (hERG potassium channel): 45%

pIC50 (CXCR4 [2]; [4]): 7.82
SMILES: CCOC(=O)Cn1c2ccccc2c2ccnc(CN(CCCCN)[C@H]3CCCc4cccnc43)c21

pIC50 (CXCR4 [2]; [4]): 6.00
SMILES: CCN(Cc1nccc2c3ccccc3n(CCCN)c12)[C@H]1CCCc2cccnc21

pIC50 (CXCR4 [2]; Table 9, selected compounds): 7.52
SMILES: CN1CCN(C(=O)Cn2c3ccccc3c3ccnc(CN(CCCCN)[C@H]4CCCc5cccnc54)c32)CC1 [drawing 823]
EC50 at 6 days [1]: 50000 nM
inhibition at 5 min, 10 µM (hERG potassium channel): 39%

pIC50 (CXCR4 [2]; [4]): 6.32
SMILES: NCCCCN(Cc1nccc2c3ccccc3n(Cc3cccnc3)c12)[C@H]1CCCc2cccnc21

pIC50 (CXCR4 [2]; [4]): 7.96
SMILES: NCCCCN(Cc1nccc2c3ccccc3n(CCO)c12)[C@H]1CCCc2cccnc21

pIC50 (CXCR4 [2]; [4]): 7.70
SMILES: NCCCCN(Cc1nccc2c3ccccc3n(CCCN3CCNCC3=O)c12)[C@H]1CCCc2cccnc21

pIC50 (CXCR4 [2]; [4]): 7.11
SMILES: NCCCCN(Cc1nccc2c3ccccc3n(CC(=O)N3CCSCC3)c12)[C@H]1CCCc2cccnc21

pIC50 (CXCR4 [3]): 8.24
SMILES: NCCCCN(Cc1nccc2c3ccccc3n(CC(N)=O)c12)C1CCCc2cccnc21 (centres unmarked)

pIC50 (CXCR4 [2]; [4]): 7.10
SMILES: NCCCCN(Cc1nccc2c3ccccc3n(CC(=O)N3CCOCC3)c12)[C@H]1CCCc2cccnc21 [drawing 701]

pIC50 (CXCR4 [2]; [4]): 7.51
SMILES: NCCCCN(Cc1nccc2c3ccccc3n(Cc3ccccn3)c12)[C@H]1CCCc2cccnc21

pIC50 (CXCR4 [2]; [4]): 7.33
SMILES: NCCCCN(Cc1nccc2c3ccccc3n(Cc3ccccc3)c12)[C@H]1CCCc2cccnc21
